The text below walks through data of patent US7851637B2, “Compounds and methods for inhibiting the interaction of BCL proteins with binding partners” (Infinity Pharmaceuticals, Inc., priority 2004, dated 2010).

In one assay the target is Bcl-xL (Homo sapiens, UniProt Q07817). Briefly: Bcl-xL binding affinity analysis (fluorescence polarization binding assay). Details: scale not given here. An excerpt:
(§1) Bcl-2 and Bcl-xL binding can be determined using a variety of known methods. One such assay is a sensitive and quantitative in vitro binding assay using fluorescence polarization (FP) described by Wang, J. -L.; Zhang, Z -J.; Choksi, S.; Sjam. S.; Lu, Z.; Croce, C. M.; Alnenri, E. S.; Komgold, R.; Huang, Z. Cell permeable Bcl-2 binding peptides: a chemical approach to apoptosis induction in tumor cells. Cancer Res. 2000, 60, 1498-1502).
(§2) Bcl-2 and Bcl-xL binding affinity analysis data is presented below for various compounds of the invention.
In general terms: Polarisation of emitted light reports the rotation of a fluorescent probe.

In the next assay the target is Bcl-2 (Homo sapiens, UniProt P10415). Briefly: Bcl-2 binding affinity analysis (fluorescence polarization binding assay).
Sequence of Bcl-2 (P10415 whole entry): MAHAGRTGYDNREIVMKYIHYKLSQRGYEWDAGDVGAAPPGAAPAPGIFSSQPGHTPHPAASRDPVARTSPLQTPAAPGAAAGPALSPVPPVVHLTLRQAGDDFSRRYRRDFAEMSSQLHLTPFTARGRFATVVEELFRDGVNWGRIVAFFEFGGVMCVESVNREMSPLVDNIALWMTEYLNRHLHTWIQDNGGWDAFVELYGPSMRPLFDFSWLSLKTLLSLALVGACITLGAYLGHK
Description: as §1, §2

Sequence of Bcl-xL (Q07817 whole entry): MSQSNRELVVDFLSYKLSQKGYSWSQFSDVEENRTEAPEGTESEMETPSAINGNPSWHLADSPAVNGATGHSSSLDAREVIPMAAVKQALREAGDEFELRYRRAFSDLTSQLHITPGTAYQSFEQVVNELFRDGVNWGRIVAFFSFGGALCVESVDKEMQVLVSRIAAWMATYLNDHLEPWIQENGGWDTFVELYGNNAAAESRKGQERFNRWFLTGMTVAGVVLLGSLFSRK

Broadly, the Ki is the equilibrium dissociation constant of an inhibitor or competing ligand from its target. In the case of `C[C@@H](O)[C@H]1[C@@H](CO)ON(Cc2cccc(C#CCNC(=O)c3ccccc3)c2)[C@H]1C(=O)NCc1ccc(Oc2ccccc2)cc1` [Compound 63], the “Bcl-XL binding affinity Ki” value on Bcl-xL is “♯”. This molecule also had an inhibitory constant (Ki) at Bcl-2 of 0.8 to 6 µM.
The matching figures for `C[C@@H](O)[C@H]1[C@@H](CO)ON(Cc2cccc(C#CCNC(=O)c3ccccc3)c2)[C@H]1C(=O)NCCCCc1ccccc1` [Compound 64]: “♯” and 0.8 to 6 µM.
The matching figures for `CC(C)C[C@@H](CN(C)C)NC(=O)c1cccc(-c2cccc(CN3O[C@@H](CO)[C@@H]([C@H](C)O)[C@H]3C(=O)N[C@H]3C[C@H]4C[C@@H]([C@@H]3C)C4(C)C)c2)c1` [Compound 97]: “♯♯” and 0.8 to 6 µM.
The like results for `CC(C)C[C@H](CN(C)C)NC(=O)c1cccc(-c2cccc(CN3O[C@@H](CO)[C@@H]([C@H](C)O)[C@H]3C(=O)N[C@H]3C[C@H]4C[C@@H]([C@@H]3C)C4(C)C)c2)c1` [Compound 99] were, in that order, “♯♯” and 0.8 to 6 µM.
Turning to `CC(C)[C@@H](CN(C)C)NC(=O)c1cccc(-c2cccc(CN3O[C@@H](CO)[C@@H]([C@H](C)O)[C@H]3C(=O)N[C@H]3C[C@H]4C[C@@H]([C@@H]3C)C4(C)C)c2)c1` [Compound 100], on Bcl-xL, the “Bcl-XL binding affinity Ki” value is on record as “♯”. The same molecule displayed a Ki on Bcl-2 below 0.8 µM.
The like results for `CC(C)[C@H](CN(C)C)NC(=O)c1cccc(-c2cccc(CN3O[C@@H](CO)[C@@H]([C@H](C)O)[C@H]3C(=O)N[C@H]3C[C@H]4C[C@@H]([C@@H]3C)C4(C)C)c2)c1` [Compound 103] were, in that order, “♯” and below 0.8 µM.
The like results for `C[C@@H]1[C@@H](NC(=O)[C@@H]2[C@H]([C@H](C)O)[C@H](CO)ON2Cc2cccc(-c3cccc(C(=O)NC[C@@H]4CCCN4C)c3)c2)C[C@H]2C[C@@H]1C2(C)C` [Compound 104] were, in that order, “♯” and below 0.8 µM.
In the case of `C[C@@H]1[C@@H](NC(=O)[C@@H]2[C@H]([C@H](C)O)[C@H](CO)ON2Cc2cccc(-c3cccc(C(=O)NCCN4CCCCC4)c3)c2)C[C@H]2C[C@@H]1C2(C)C` [Compound 105], on Bcl-xL, the “Bcl-XL binding affinity Ki” value was “♯”. Also, the Ki at Bcl-2 is below 0.8 µM.
`CCN1CCC[C@@H]1CNC(=O)c1cccc(-c2cccc(CN3O[C@@H](CO)[C@@H]([C@H](C)O)[C@H]3C(=O)N[C@H]3C[C@H]4C[C@@H]([C@@H]3C)C4(C)C)c2)c1` [Compound 106]: the “Bcl-XL binding affinity Ki” value on Bcl-xL is “♯”. The molecule also returned an inhibitory constant (Ki) at Bcl-2 below 0.8 µM.
The like results for `C[C@@H]1[C@@H](NC(=O)[C@@H]2[C@H]([C@H](C)O)[C@H](CO)ON2Cc2cccc(-c3cccc(C(=O)NCCN(C)C)c3)c2)C[C@H]2C[C@@H]1C2(C)C` [Compound 107] were, in that order, “♯” and below 0.8 µM.
For `CCN(CC)C(=O)c1ccc(-c2cccc(CN3O[C@@H](CO)[C@@H]([C@H](C)O)[C@H]3C(=O)N[C@H]3C[C@H]4C[C@@H]([C@@H]3C)C4(C)C)c2)cc1` [Compound 108], on Bcl-xL, the “Bcl-XL binding affinity Ki” value is reported as “♯”. The same molecule yielded a Ki on Bcl-2 below 0.8 µM.
The matching figures for `C[C@@H]1[C@@H](NC(=O)[C@@H]2[C@H]([C@H](C)O)[C@H](CO)ON2Cc2cccc(-c3ccc(C(=O)N4CCOCC4)cc3)c2)C[C@H]2C[C@@H]1C2(C)C` [Compound 109]: “♯” and below 0.8 µM.
The like results for `CC(CN(C)C)NC(=O)c1cccc(-c2cccc(CN3O[C@@H](CO)[C@@H]([C@H](C)O)[C@H]3C(=O)N[C@H]3C[C@H]4C[C@@H]([C@@H]3C)C4(C)C)c2)c1` (stereo partly shown) [Compound 110] were, in that order, “♯” and below 0.8 µM.
The matching figures for `C[C@@H]1[C@@H](NC(=O)[C@@H]2[C@H]([C@H](C)O)[C@H](CO)ON2Cc2cccc(-c3cccc(C(=O)NCCCN4CCCCC4)c3)c2)C[C@H]2C[C@@H]1C2(C)C` [Compound 111]: “♯” and below 0.8 µM.
As for `CCN(CC)CCNC(=O)c1cccc(-c2cccc(CN3O[C@@H](CO)[C@@H]([C@H](C)O)[C@H]3C(=O)N[C@H]3C[C@H]4C[C@@H]([C@@H]3C)C4(C)C)c2)c1` [Compound 112], the “Bcl-XL binding affinity Ki” value at Bcl-xL is given as “♯”. For the same molecule, the inhibition constant (Ki) at Bcl-2 is below 0.8 µM.
The like results for `C[C@@H]1[C@@H](NC(=O)[C@@H]2[C@H]([C@H](C)O)[C@H](CO)ON2Cc2cccc(-c3cccc(C(=O)NCCCCN(C)C)c3)c2)C[C@H]2C[C@@H]1C2(C)C` [Compound 113] were, in that order, “♯” and below 0.8 µM.
The matching figures for `C[C@@H]1[C@@H](NC(=O)[C@@H]2[C@H]([C@H](C)O)[C@H](CO)ON2Cc2cccc(-c3cccc(C(=O)N[C@H]4CCNC4)c3)c2)C[C@H]2C[C@@H]1C2(C)C` [Compound 114]: “♯” and below 0.8 µM.
The matching figures for `C[C@@H]1[C@@H](NC(=O)[C@@H]2[C@H]([C@H](C)O)[C@H](CO)ON2Cc2cccc(-c3ccc(S(C)(=O)=O)cc3)c2)C[C@H]2C[C@@H]1C2(C)C` [Compound 115]: “♯” and below 0.8 µM.
On to `C[C@@H]1[C@@H](NC(=O)[C@@H]2[C@H]([C@H](C)O)[C@H](CO)ON2Cc2cccc(-c3cccc(C(=O)NCCN4CCN(C)CC4)c3)c2)C[C@H]2C[C@@H]1C2(C)C` [Compound 116], for which, on Bcl-xL, the “Bcl-XL binding affinity Ki” value was “♯”. In addition, the Ki at Bcl-2 was below 0.8 µM.
The like results for `C[C@@H]1[C@@H](NC(=O)[C@@H]2[C@H]([C@H](C)O)[C@H](CO)ON2Cc2cccc(-c3ccc(-n4ccnc4)cc3)c2)C[C@H]2C[C@@H]1C2(C)C` [Compound 117] were, in that order, “♯♯” and below 0.8 µM.
Regarding `C[C@@H]1[C@@H](NC(=O)[C@@H]2[C@H]([C@H](C)O)[C@H](CO)ON2Cc2cccc(-c3ccc(C(=O)N(C)C)cc3)c2)C[C@H]2C[C@@H]1C2(C)C` [Compound 118], the “Bcl-XL binding affinity Ki” value at Bcl-xL is on record as “♯”. On Bcl-2, this molecule yielded an inhibition constant Ki below 0.8 µM.
Turning to `C[C@@H]1[C@@H](NC(=O)[C@@H]2[C@H]([C@H](C)O)[C@H](CO)ON2Cc2cccc(-c3cccc(C(=O)N4CC[C@H](N(C)C)C4)c3)c2)C[C@H]2C[C@@H]1C2(C)C` [Compound 119], the “Bcl-XL binding affinity Ki” value at Bcl-xL was “♯♯”. The molecule further returned a Ki on Bcl-2 below 0.8 µM.
The like results for `C[C@@H]1[C@@H](NC(=O)[C@@H]2[C@H]([C@H](C)O)[C@H](CO)ON2Cc2cccc(-c3ccc(S(N)(=O)=O)cc3)c2)C[C@H]2C[C@@H]1C2(C)C` [Compound 120] were, in that order, “♯♯” and below 0.8 µM.
For `C[C@@H]1[C@@H](NC(=O)[C@@H]2[C@H]([C@H](C)O)[C@H](CO)ON2Cc2cccc(-c3cccc(C(=O)NCCCO)c3)c2)C[C@H]2C[C@@H]1C2(C)C` [Compound 121], at Bcl-xL, the “Bcl-XL binding affinity Ki” value is “♯♯”. At Bcl-2, this molecule came in with a Ki below 0.8 µM.
`CCNC(=O)c1cccc(-c2cccc(CN3O[C@@H](CO)[C@@H]([C@H](C)O)[C@H]3C(=O)N[C@H]3C[C@H]4C[C@@H]([C@@H]3C)C4(C)C)c2)c1` [Compound 122]: the “Bcl-XL binding affinity Ki” value on Bcl-xL was “♯♯”. The same molecule showed an inhibition constant Ki on Bcl-2 below 0.8 µM.
The matching figures for `C[C@@H]1[C@@H](NC(=O)[C@@H]2[C@H]([C@H](C)O)[C@H](CO)ON2Cc2cccc(-c3cccc(C(=O)NCCCn4ccnc4)c3)c2)C[C@H]2C[C@@H]1C2(C)C` [Compound 123]: “♯” and below 0.8 µM.
